# Test results: ChEMBL document CHEMBL4138123, “Design, synthesis and biological evaluation of novel pyrazolochalcones as potential modulators of PI3K/Akt/mTOR pathway and inducers of apoptosis in breast cancer cells” (Eur J Med Chem, 2017)
# Experiments:
# Type in all cases: functional
# SK-MEL-28 [1] = test: Cytotoxicity against human SK-MEL-28 cells assessed as cell growth at 10 uM after 48 hrs by sulforhodamine B assay relative to control; conditions: SK-MEL-28, 48 h, read-out: Activity
# KM12 = test: Cytotoxicity against human KM12 cells assessed as cell growth at 0.01 uM after 48 hrs by sulforhodamine B assay relative to control; conditions: KM12, 48 h, read-out: Activity
# NCI-H522 = test: Cytotoxicity against human NCI-H522 cells assessed as growth inhibition after 48 hrs by sulforhodamine B assay; conditions: NCI-H522, 48 h
# COLO 205 = test: Cytotoxicity against human COLO205 cells assessed as growth inhibition after 48 hrs by sulforhodamine B assay; conditions: COLO 205, 48 h
# SN12C = test: Cytotoxicity against human SN12C cells assessed as cell growth at 1 uM after 48 hrs by sulforhodamine B assay relative to control; conditions: read-out: Activity
# UACC-257 [2] = test: Cytotoxicity against human UACC257 cells assessed as cell growth at 100 uM after 48 hrs by sulforhodamine B assay relative to control; conditions: UACC-257, 48 h, read-out: Activity
# A498 [3] = test: Cytotoxicity against human A498 cells assessed as cell growth at 10 uM after 48 hrs by sulforhodamine B assay relative to control; conditions: A498, 48 h, read-out: Activity
# Hs-578T = test: Cytotoxicity against human Hs 578T cells assessed as cell growth at 1 uM after 48 hrs by sulforhodamine B assay relative to control; conditions: read-out: Activity
# NCI-H322M [4] = test: Cytotoxicity against human NCI-H322M cells assessed as cell growth at 0.1 uM after 48 hrs by sulforhodamine B assay relative to control; conditions: read-out: Activity
# SF-268 = test: Cytotoxicity against human SF268 cells assessed as cell growth at 0.01 uM after 48 hrs by sulforhodamine B assay relative to control; conditions: SF-268, 48 h, read-out: Activity
# SK-MEL-5 = test: Cytotoxicity against human SK-MEL-5 cells assessed as cell growth at 10 uM after 48 hrs by sulforhodamine B assay relative to control; conditions: SK-MEL-5, 48 h, read-out: Activity
# MDA-MB-468 = test: Cytotoxicity against human MDA-MB-468 cells assessed as growth inhibition after 48 hrs by sulforhodamine B assay; conditions: MDA-MB-468, 48 h
# NCI-H460 [5] = test: Cytotoxicity against human NCI-H460 cells assessed as cell growth at 100 uM after 48 hrs by sulforhodamine B assay relative to control; conditions: NCI-H460, 48 h, read-out: Activity
# UO-31 = test: Cytotoxicity against human UO31 cells assessed as cell growth at 0.1 uM after 48 hrs by sulforhodamine B assay relative to control; conditions: UO-31, 48 h, read-out: Activity
# HOP-62 [6] = test: Cytotoxicity against human HOP62 cells assessed as cell growth at 100 uM after 48 hrs by sulforhodamine B assay relative to control; conditions: HOP-62, 48 h, read-out: Activity
# HT-29 = test: Cytotoxicity against human HT-29 cells assessed as cell growth at 0.1 uM after 48 hrs by sulforhodamine B assay relative to control; conditions: HT-29, 48 h, read-out: Activity
# MOLT-4 = test: Cytotoxicity against human MOLT4 cells assessed as cell growth at 100 uM after 48 hrs by sulforhodamine B assay relative to control; conditions: MOLT-4, 48 h, read-out: Activity
# SK-MEL-28 [7] = test: Cytotoxicity against human SK-MEL-28 cells assessed as cell growth at 0.1 uM after 48 hrs by sulforhodamine B assay relative to control; conditions: SK-MEL-28, 48 h, read-out: Activity
# OVCAR-5 = test: Cytotoxicity against human OVCAR5 cells assessed as cell growth at 0.01 uM after 48 hrs by sulforhodamine B assay relative to control; conditions: OVCAR-5, 48 h, read-out: Activity
# NCI-H460 [8] = test: Cytotoxicity against human NCI-H460 cells assessed as cell growth at 0.01 uM after 48 hrs by sulforhodamine B assay relative to control; conditions: NCI-H460, 48 h, read-out: Activity
# HL-60(TB) = test: Cytotoxicity against human HL-60(TB) cells assessed as cell growth at 10 uM after 48 hrs by sulforhodamine B assay relative to control; conditions: HL-60, 48 h, read-out: Activity
# SR = test: Cytotoxicity against human SR cells assessed as cell growth at 0.1 uM after 48 hrs by sulforhodamine B assay relative to control; conditions: read-out: Activity
# HCT-15 [9] = test: Cytotoxicity against human HCT15 cells assessed as cell growth at 10 uM after 48 hrs by sulforhodamine B assay relative to control; conditions: HCT-15, 48 h, read-out: Activity
# RXF 393 = test: Cytotoxicity against human RXF393 cells assessed as growth inhibition after 48 hrs by sulforhodamine B assay; conditions: RXF 393, 48 h
# HCT-116 = test: Cytotoxicity against human HCT116 cells assessed as growth inhibition after 48 hrs by sulforhodamine B assay; conditions: HCT-116, 48 h
# TK-10 = test: Cytotoxicity against human TK10 cells assessed as cell growth at 10 uM after 48 hrs by sulforhodamine B assay relative to control; conditions: TK-10, 48 h, read-out: Activity
# RPMI-8226 = test: Cytotoxicity against human RPMI8226 cells assessed as cell growth at 10 uM after 48 hrs by sulforhodamine B assay relative to control; conditions: RPMI-8226, 48 h, read-out: Activity
# HCT-15 [10] = test: Cytotoxicity against human HCT15 cells assessed as cell growth at 0.1 uM after 48 hrs by sulforhodamine B assay relative to control; conditions: HCT-15, 48 h, read-out: Activity
# MCF7 = test: Cytotoxicity against human MCF7 cells assessed as cell growth at 0.01 uM after 48 hrs by sulforhodamine B assay relative to control; conditions: MCF7, 48 h, read-out: Activity
# UACC-257 [11] = test: Cytotoxicity against human UACC257 cells assessed as cell growth at 10 uM after 48 hrs by sulforhodamine B assay relative to control; conditions: UACC-257, 48 h, read-out: Activity
# UACC-62 = test: Cytotoxicity against human UACC62 cells assessed as cell growth at 0.01 uM after 48 hrs by sulforhodamine B assay relative to control; conditions: UACC-62, 48 h, read-out: Activity
# HOP-62 [12] = test: Cytotoxicity against human HOP62 cells assessed as cell growth at 0.01 uM after 48 hrs by sulforhodamine B assay relative to control; conditions: HOP-62, 48 h, read-out: Activity
# DU-145 = test: Cytotoxicity against human DU145 cells assessed as cell growth at 10 uM after 48 hrs by sulforhodamine B assay relative to control; conditions: DU-145, 48 h, read-out: Activity
# A498 [13] = test: Cytotoxicity against human A498 cells assessed as cell growth at 1 uM after 48 hrs by sulforhodamine B assay relative to control; conditions: A498, 48 h, read-out: Activity
# NCI-H322M [14] = test: Cytotoxicity against human NCI-H322M cells assessed as cell growth at 100 uM after 48 hrs by sulforhodamine B assay relative to control; conditions: read-out: Activity
# PC-3 = test: Cytotoxicity against human PC3 cells assessed as cell growth at 1 uM after 48 hrs by sulforhodamine B assay relative to control; conditions: PC-3, 48 h, read-out: Activity
structure (smiles),measurement,setting,value
COc1ccc(C(=O)/C=C/c2cc(-c3ccc4c(c3)OCO4)n[nH]2)cc1OC,growth at 10 µM,SK-MEL-28 [1],36%
same,growth at 0.01 µM,KM12,99%
same,LC50,NCI-H522,12.7 µM
same,TGI,NCI-H522,4.44 µM
same,LC50,COLO 205,45.9 µM
same,TGI,COLO 205,14 µM
same,growth at 1 µM,SN12C,91%
same,growth at 100 µM,UACC-257 [2],-81%
same,growth at 10 µM,A498 [3],-43%
same,growth at 1 µM,Hs-578T,94%
same,growth at 0.1 µM,NCI-H322M [4],88%
same,growth at 0.01 µM,SF-268,93%
same,growth at 10 µM,SK-MEL-5,41%
same,GI50,MDA-MB-468,1.86 µM
same,LC50,MDA-MB-468,13.5 µM
same,TGI,MDA-MB-468,4.52 µM
same,growth at 100 µM,NCI-H460 [5],-81%
same,growth at 0.1 µM,UO-31,81%
same,growth at 100 µM,HOP-62 [6],-80%
same,growth at 0.1 µM,HT-29,92%
same,growth at 100 µM,MOLT-4,-20%
same,growth at 0.1 µM,SK-MEL-28 [7],104%
same,growth at 0.01 µM,OVCAR-5,96%
same,growth at 0.01 µM,NCI-H460 [8],101%
same,growth at 10 µM,HL-60(TB),3%
same,growth at 0.1 µM,SR,88%
same,growth at 10 µM,HCT-15 [9],6%
same,LC50 (concentration killing 50% of cells),RXF 393,15.9 µM
same,TGI,RXF 393,5.39 µM
same,LC50,HCT-116,56.2 µM
same,TGI,HCT-116,7.99 µM
same,growth at 10 µM,TK-10,-5%
same,growth at 10 µM,RPMI-8226,-20%
same,growth at 0.1 µM,HCT-15 [10],95%
same,growth at 0.01 µM,MCF7,92%
same,growth at 10 µM,UACC-257 [11],42%
same,growth at 0.01 µM,UACC-62,98%
same,growth at 0.01 µM,HOP-62 [12],95%
same,growth at 10 µM,DU-145,-51%
same,growth at 1 µM,A498 [13],72%
same,growth at 100 µM,NCI-H322M [14],-90%
same,growth at 1 µM,PC-3,74%
COc1cc(-c2cc(/C=C/C(=O)c3ccc(N)cc3)[nH]n2)cc(OC)c1OC,growth at 10 µM,SK-MEL-28 [1],-57%
same,growth at 0.01 µM,KM12,102%
same,GI50,NCI-H522,1.62 µM
same,LC50,NCI-H522,9.81 µM
same,TGI,NCI-H522,3.99 µM
same,GI50,COLO 205,1.74 µM
same,LC50,COLO 205,6.42 µM
same,TGI,COLO 205,3.34 µM
same,growth at 1 µM,SN12C,85%
same,growth at 100 µM,UACC-257 [2],-93%
same,growth at 10 µM,A498 [3],-43%
same,growth at 1 µM,Hs-578T,87%
same,growth at 0.1 µM,NCI-H322M [4],103%
same,growth at 0.01 µM,SF-268,99%
same,growth at 10 µM,SK-MEL-5,-95%
same,GI50,MDA-MB-468,1.01 µM
same,LC50,MDA-MB-468,8.42 µM
same,TGI,MDA-MB-468,2.91 µM
same,growth at 100 µM,NCI-H460 [5],-59%
same,growth at 0.1 µM,UO-31,91%
same,growth at 100 µM,HOP-62 [6],-98%
same,growth at 0.1 µM,HT-29,102%
same,growth at 100 µM,MOLT-4,-20%
same,growth at 0.1 µM,SK-MEL-28 [7],95%
same,growth at 0.01 µM,OVCAR-5,90%
same,growth at 0.01 µM,NCI-H460 [8],102%
same,growth at 0.1 µM,SR,87%
same,growth at 10 µM,HCT-15 [9],-12%
same,GI50,RXF 393,1.35 µM
same,LC50 (concentration killing 50% of cells),RXF 393,7.79 µM
same,TGI,RXF 393,3.24 µM
same,GI50,HCT-116,1.1 µM
same,LC50,HCT-116,6.19 µM
same,TGI,HCT-116,2.61 µM
same,growth at 10 µM,TK-10,26%
same,growth at 10 µM,RPMI-8226,-35%
same,growth at 0.1 µM,HCT-15 [10],94%
same,growth at 0.01 µM,MCF7,89%
same,growth at 10 µM,UACC-257 [11],-59%
same,growth at 0.01 µM,UACC-62,99%
same,growth at 0.01 µM,HOP-62 [12],83%
same,growth at 10 µM,DU-145,-50%
same,growth at 1 µM,A498 [13],76%
same,growth at 100 µM,NCI-H322M [14],-89%
same,growth at 1 µM,PC-3,76%
COc1cc(-c2cc(/C=C/C(=O)c3ccc4c(c3)OCO4)[nH]n2)cc(OC)c1OC,growth at 10 µM,SK-MEL-28 [1],-14%
same,growth at 0.01 µM,KM12,96%
same,LC50,NCI-H522,5.37 µM
same,TGI,NCI-H522,2.35 µM
same,LC50,COLO 205,7.92 µM
same,TGI,COLO 205,3.85 µM
same,growth at 1 µM,SN12C,91%
same,growth at 100 µM,UACC-257 [2],-1%
same,growth at 10 µM,A498 [3],9%
same,growth at 1 µM,Hs-578T,94%
same,growth at 0.1 µM,NCI-H322M [4],95%
same,growth at 0.01 µM,SF-268,91%
same,growth at 10 µM,SK-MEL-5,26%
same,GI50,MDA-MB-468,1.4 µM
same,LC50,MDA-MB-468,5.82 µM
same,TGI,MDA-MB-468,2.86 µM
same,growth at 100 µM,NCI-H460 [5],-34%
same,growth at 0.1 µM,UO-31,83%
same,growth at 100 µM,HOP-62 [6],-70%
same,growth at 0.1 µM,HT-29,100%
same,growth at 100 µM,MOLT-4,-10%
same,growth at 0.1 µM,SK-MEL-28 [7],106%
same,growth at 0.01 µM,OVCAR-5,97%
same,growth at 0.01 µM,NCI-H460 [8],104%
same,growth at 10 µM,HL-60(TB),-21%
same,growth at 0.1 µM,SR,101%
same,growth at 10 µM,HCT-15 [9],-13%
same,LC50 (concentration killing 50% of cells),RXF 393,5.55 µM
same,TGI,RXF 393,2.87 µM
same,growth at 10 µM,TK-10,-31%
same,growth at 10 µM,RPMI-8226,-41%
same,growth at 0.1 µM,HCT-15 [10],92%
same,growth at 0.01 µM,MCF7,89%
same,growth at 10 µM,UACC-257 [11],2%
same,growth at 0.01 µM,UACC-62,98%
same,growth at 0.01 µM,HOP-62 [12],101%
same,growth at 10 µM,DU-145,-2%
same,growth at 1 µM,A498 [13],83%
same,growth at 100 µM,NCI-H322M [14],-9%
same,growth at 1 µM,PC-3,86%
